The results in this text go back to patent US20240057638A1, “COMPOSITIONS FOR REDUCING METHANE EMISSION, METHODS FOR IMPROVING THE METABOLIC EFFICIENCY OF RUMINANT ANIMALS AND METHANOGENESIS INHIBITOR ADMINISTRATION” (MOOTRAL INNOVATIONS LIMITED, priority 2020, published 2024).

Broadly, the inhibition is the relative decrease from the control value, in per cent.

The experiment relates to Methanococcus maripaludis. The experiment is described as follows: Inhibition of methane production by Methanococcus maripaludis culture (pressure drop by manometer after 24 h). It is filed as cell-based. The settings on record: for % Inhibition Gas: 37° C. As for the experimental part: For this experiment, bromoform was prepped at 100 mM by adding 8.75 μl bromoform to 991 μl DMSO. This was diluted 10x diluted to generate a 10 mM solution and further diluted to generate 0.12- and 0.156-mM stock solutions. Allicin stock solutions were prepared by adding 48.6 μl allicin to 951.4 μl DMSO to make a 300 mM stock solution and 32.5 μl allicin to 967.5 μl DMSO to make a 200 mM stock solution. The experiment was set up by adding 5 ml of M141 medium (https://www.dsmz.de/microorganisms/medium/pdf/DSMZ_Medium141.pdf) to a screw cap Hungate tube followed by the addition of 5 μl allicin and/or 5 μl bromoform or 10 μl DMSO as follows: • Tube 1: DMSO (10 μl) • Tube 2: Bromoform (5 μl 0.120 mM) (120 nM final)+5 μl DMSO • Tube 3: Bromoform (5 μl 0.156 mM) (156 nM final)+5 μl DMSO • Tube 4: Allicin (5 μl 200 mM) (200 μM final)+5 μl DMSO • Tube 5: Allicin (5 μl 300 mM) (300 μM final)+5 μl DMSO • Tube 6: Bromoform (5 μl 0.120 mM) (120 nM final)+Allicin (5 μl 200 mM) (200 μM final) • Tube 7: Bromoform (5 μl 0.120 mM) (120 nM final)+Allicin (5 μl 300 mM) (300 μM final) • Tube 8: Bromoform (5 μl 0.156 mM) (156 nM final)+Allicin (5 μl 200 mM) (200 μM final) • Tube 9: Bromoform (5 μl 0.156 mM) (156 nM final)+Allicin (5 μl 300 mM) (300 μM final)
After the addition of the test substances, 500 μl of an overnight M. maripaludis culture was added to each reaction tube. Each tube was gassed with 80% H2/20% CO2 to 240 kPa and incubated at 37° C. for 24 h.
After the 24 h incubation the pressure inside the tube was measured using a manometer. Given that 5 moles of H2/CO2 are consumed to generate 1 mole of CH4 the drop in pressure observed was used to calculate the amount of methane by the control and test reactions from which a percent inhibition was calculated.
For this experiment, bromoform was prepped at 100 mM by adding 8.75 μl bromoform to 991 μl DMSO. This was diluted 10× diluted to generate a 10 mM solution and further diluted to generate 0.10- and 0.156-mM stock solutions. The sample was prepared by adding 245 mg NXRH214 powder to 35 ml M141 medium (https://www.dsmz.de/microorganisms/medium/pdf/DSMZ_Medium141.pdf) to generate a 7 mg/ml stock solution. NXRH214 powder is a garlic powder (allicin) and citrus extract (polyphenol flavonoid mix) with a ratio of 93:7, where the flavonoid mix comprises mainly naringin and neohesperidin.

The mark [1] stands for this setting: Methanococcus maripaludis, read-out: % Inhibition Gas.

Regarding `C=CCS[S@@+]([O-])CC=C` (stereo in doubt) [Allicin, allicin], the “% Inhibition Gas” value runs as follows: (Allicin 200 μM with DMSO) 0%; (Allicin 300 μM with DMSO) 19%.

Take `BrC(Br)Br` [Bromoform, bromoform]: under setting [1], the inhibition at 0.1 µM is 0% and the inhibition at 0.156 µM is 0.5%.
